For this experiment, the target named is T1, Nav1.5 channel currents (INa, ILATE) in M3q iPS-CMs (Homo sapiens, UniProt Q14524).
T1 construct: host or cells: human iCell^2 iPS cardiomyocytes (transfected with M3q DREADD in A5; endogenous AT1 receptor in A7)
The experiment is described as follows: Whole-cell patch-clamp of INa and ILATE in M3q-DREADD iPS-CMs activated with CNO. The format is cell-based. The conditions noted are these: 100 nM CNO. The procedure:
Control is CNO application to cells with no M3q. Mean±SD % fluorescence change for 20 cells per group; an example photobleaching montage is inset. […] Leftwards shifts in each parameter are precluded by U73122 or by 200 μM diC8-PIP2 in the pipette but are not sensitive to staurosporine or BAPTA. The cells were perfused with an extracellular solution containing (in mM): 130 NaCl, 5 CsCl, 1.2 MgCl2, 1.5 CaCl2), 8 Glucose, 10 HEPES (pH7.4). […] nitrendipine was added to the recording solution to block Ca^2+ flux through Cav channels. Patch pipettes with a resistance of 2.5-4 MQ are filled with a solution containing (in mM): 60 CsCl, 80 CsF, 2 MgCl2, 10 EGTA, 5 Na2ATP, 5 HEPES (pH 7.4). Currents were low pass (Bessel) filtered at 9 kHz and digitized at 50 kHz and were collected from cells with a series resistance <15 MQ; this was compensated by 70%.
Results. Studies are designed to evaluate if hydrolysis of PIP2 modulates Nav1.5 channel currents in cardiomyocytes. To perform these experiments, we used human iPS cardiomyocytes (iCell^2 iPS-CMs) from Fuji-Film Cellular Dynamics. These iPS-CMs are a valuable model system for human cardiomyocytes that retain many of the key characteristics of the native cells. Here, we transfected the iPS-CMs to express the Gαq-coupled M3q Designer Receptors Exclusively Activated by Designer Drugs (DREADD) receptor. We use a magnetic transfection system from Oz Biosciences that we have previously employed with cardiomyocytes. First, we tested the efficacy of M3q to hydrolyze PIP2 in our model system. To accomplish this, we studied uncoupling of the PIP2 biosensor iRFP-PHPLCδ1 from the plasma membrane in response to chemogenic activation of M3q by 100 nM clozapine N-oxide (CNO, Tocris Biosciences).
These findings are consistent with our prior observations and the work using optogenetically activated PI-phosphatases to deplete PIP2 in HEK293 cells […] Xenopus laevis oocytes. […] Having established a time frame for PIP2 hydrolysis in our system, we used whole-cell patch-clamp to study INa in paired experiments, before and after chemogenic activation of M3q. Applying 100 nM CNO evoked a leftward shift in the current-voltage (I-V) relationship of INa such that peak INa shifted from −25 to −35 mV. At −35 mV, the peak current-density increased from −220±5 pA/pF to −266±4 pA/pF at −35 mV (n=8, P<0.001, paired Student's t-test). […] However, in contrast to our findings with Nav1.4, activating M3q signaling also left-shifted the steady state inactivation curve of Nav1.5 (V½SSI), from −81.4±2 to −89.7±2 mV (n=8, P<0.01, paired t-test; FIGS. 2C, 2D). These studies indicate that Nav1.5 channels are regulated by hydrolysis of PIP2 and that there are distinctions between PIP2 regulation of Nav1.5 and Nav1.4.
Next, we studied the effect of M3q-activation on ILATE by recording currents evoked by a 400 ms depolarizing pulse to −20 mV before and during receptor activation. The magnitude of ILATE represents the mean current 150-200 ms after peak INa and is expressed as a percentage of peak INa. […] The effects of M3q activation on V½ACT, V½SSI, and the development of ILATE were not affected by staurosporine (1 μM, 1-hour preincubation) or BAPTA (10 mM in the recording pipette), making a role for IP3 or DAG unlikely. […] Similar data were obtained for Nav1.5 expressed with Navβ1 and the M3q-DREADD receptor in HEK293T cells. This experiment validates that the findings are not restricted to a particular model system or cellular environment.
Measure modulation in INa and ILATE by endogenous Gαq signaling. Like native cardiomyocytes, human iPS-CMs express AT1 receptors. Here, the effects of Ang II (Tocris) on Nav1.5 channel function in iPS-CMs is tested using four whole-cell patch-clamp recording protocols. […]
In general terms: In patch-clamp work, channel activity is measured electrically.

SMILES strings stand for the structures. Entries after “also recorded” stand apart in the source; their conditions may differ.

T1 sequence (Q14524 whole entry): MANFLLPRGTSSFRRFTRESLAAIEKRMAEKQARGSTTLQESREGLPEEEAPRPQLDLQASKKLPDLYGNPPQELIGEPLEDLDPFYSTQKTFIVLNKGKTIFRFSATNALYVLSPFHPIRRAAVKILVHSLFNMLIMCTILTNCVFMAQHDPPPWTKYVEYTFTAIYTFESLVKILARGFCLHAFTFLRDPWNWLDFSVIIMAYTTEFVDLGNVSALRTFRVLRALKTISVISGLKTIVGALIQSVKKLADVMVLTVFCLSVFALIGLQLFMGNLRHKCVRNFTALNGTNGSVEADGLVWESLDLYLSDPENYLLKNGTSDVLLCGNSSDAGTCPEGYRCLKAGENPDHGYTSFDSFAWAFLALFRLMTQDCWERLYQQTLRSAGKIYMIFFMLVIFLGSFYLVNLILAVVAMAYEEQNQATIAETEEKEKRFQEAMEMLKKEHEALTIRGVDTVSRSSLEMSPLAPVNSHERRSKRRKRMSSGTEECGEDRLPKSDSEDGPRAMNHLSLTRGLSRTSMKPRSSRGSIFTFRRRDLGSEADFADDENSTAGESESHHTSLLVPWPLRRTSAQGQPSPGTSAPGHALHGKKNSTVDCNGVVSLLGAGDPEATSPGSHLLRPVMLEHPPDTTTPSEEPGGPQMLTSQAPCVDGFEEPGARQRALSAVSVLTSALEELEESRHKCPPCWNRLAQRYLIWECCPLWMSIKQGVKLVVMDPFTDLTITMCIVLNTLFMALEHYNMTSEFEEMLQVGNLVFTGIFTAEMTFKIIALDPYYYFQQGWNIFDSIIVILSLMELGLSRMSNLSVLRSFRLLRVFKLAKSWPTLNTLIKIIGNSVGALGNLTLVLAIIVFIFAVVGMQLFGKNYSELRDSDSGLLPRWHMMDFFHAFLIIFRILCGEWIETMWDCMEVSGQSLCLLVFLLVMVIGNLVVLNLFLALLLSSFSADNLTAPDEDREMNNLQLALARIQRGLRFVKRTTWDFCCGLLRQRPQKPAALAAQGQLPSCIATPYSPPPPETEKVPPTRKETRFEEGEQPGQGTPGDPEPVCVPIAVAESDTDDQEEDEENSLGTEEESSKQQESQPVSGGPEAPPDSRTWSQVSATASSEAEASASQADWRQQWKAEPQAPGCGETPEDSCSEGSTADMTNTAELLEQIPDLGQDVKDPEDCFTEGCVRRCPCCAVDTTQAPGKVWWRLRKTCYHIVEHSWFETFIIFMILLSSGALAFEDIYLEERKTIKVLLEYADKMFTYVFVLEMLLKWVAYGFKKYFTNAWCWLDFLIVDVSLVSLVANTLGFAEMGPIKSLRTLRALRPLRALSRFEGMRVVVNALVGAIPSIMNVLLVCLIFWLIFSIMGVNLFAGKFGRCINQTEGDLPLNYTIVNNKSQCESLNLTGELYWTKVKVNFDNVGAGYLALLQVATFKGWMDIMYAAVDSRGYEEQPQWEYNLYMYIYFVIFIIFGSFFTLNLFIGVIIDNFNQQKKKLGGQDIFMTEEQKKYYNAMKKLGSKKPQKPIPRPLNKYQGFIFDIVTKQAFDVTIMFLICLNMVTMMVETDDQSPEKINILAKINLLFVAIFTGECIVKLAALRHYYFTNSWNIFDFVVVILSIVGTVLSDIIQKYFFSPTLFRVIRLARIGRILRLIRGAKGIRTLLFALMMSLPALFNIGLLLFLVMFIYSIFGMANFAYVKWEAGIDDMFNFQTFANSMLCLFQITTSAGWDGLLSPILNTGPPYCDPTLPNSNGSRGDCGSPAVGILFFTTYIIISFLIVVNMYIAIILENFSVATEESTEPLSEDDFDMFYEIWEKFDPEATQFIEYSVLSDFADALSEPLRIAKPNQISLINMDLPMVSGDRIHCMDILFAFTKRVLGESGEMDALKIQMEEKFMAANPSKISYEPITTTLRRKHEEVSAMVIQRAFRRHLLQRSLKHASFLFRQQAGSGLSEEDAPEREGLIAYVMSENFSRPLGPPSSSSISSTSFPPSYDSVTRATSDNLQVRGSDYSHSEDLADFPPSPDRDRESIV

Regarding `CCCCCCCC(=O)OC[C@H](COP(=O)(O)O[C@@H]1[C@H](O)[C@H](O)[C@@H](OP(=O)(O)O)[C@H](OP(=O)(O)O)[C@H]1O)OC(=O)CCCCCCC` [diC8-PIP2], for the setting “200 μM diC8-PIP2 in pipette”, the “effect on CNO-evoked increase in ILATE” value is reported as “precluded”; the “effect on CNO-evoked leftwards shifts in V½ACT and V½SSI” value is listed as “precluded”. Also, the “effect on CNO (M3q activation) effects on V½ACT, V½SSI and ILATE” value (staurosporine 1 μM 1-hour preincubation, BAPTA 10 mM in pipette, U73122 5 μM, diC8-PIP2 200 μM in pipette) was “blocked; also recorded: abolished”.

Source of the values: patent publication US20240358727A1, “MICROSCALE THERMOPHORESIS TO EVALUATE CHANNEL LIPID INTERACTIONS AND METHODS OF TREATING NAV CHANNELS RELATED DISEASES” (Northeastern University, priority 2023, published 2024).
